Test results as given in publication PMC7898822, “RNA‐PROTACs: Degraders of RNA‐Binding Proteins” (Angewandte Chemie (International Ed. in English), 2020).

How the values were obtained:
[1] = test system: QKI (pDEST-Myc-QKI); experiment: Ubiquitination assay of Myc-QKI (negative control RBP) in 22Rv1 cells; format: cell-based; conditions: pDEST-Myc-QKI and HA-Ub, 500 nM, 48 h
Experimental: Next, we investigated the ability of ORN3P1 and ORN7P1 to mediate ubiquitination of Lin28 in cells, using a previously described protocol. ^[32] Cells from the prostate cancer cell line 22RV1, which express very low levels of Lin28, were co‐transfected with two plasmids expressing pCMV‐myc‐Lin28A and HA‐tagged polyubiquitin (HA‐Ub).
After 48 h of incubation with ORN3P1 and ORN7P1, the tagged Lin28 (and the control QKI) was immunoprecipitated using an anti‐Myc antibody. The isolated protein was then analyzed by western blotting using the anti‐HA and anti‐c‐Myc antibodies. Consistent with other previously described PROTAC reagents,[ ^32 , ^33 ]
The protein extracts (12-17 µg) were run on a 4-20% SDS-PAGE and transferred on a nitrocellulose blotting membrane 0.22 µm (GE Healthcare) using the Trans-Blot transfer device (Biorad). Membranes were blocked with 5% milk and incubated with the primary antibody overnight at 4 °C. Membranes were washed with 0.05% PBS-T and reacted with the secondary antibody for 1 h in 5% milk. The proteins were detected using the anti-lin28a antibody (Cell Signaling technology, D9F5), anti-lin28b antibody (Cell Signaling technology, 4196S), anti-rbfox1 (NovusBio, NBP2-13169SS), at 1:1000 and anti-hrnp c antibody […]
(Abcam, AB133607) at 1:10000 dilutions. […]
on a ChemiDoc MP imager (Biorad). The intensity of the signal was quantified using the ImageJ-Fiji software. […]

[2] = test system: Lin28A; experiment: Confocal microscopy, LIN28A level in K562 cells; format: cell-based, human; conditions: FAM labelled ORN3P1, 1 µM, 24 h

## CC[C@H](C)[C@H](NC(=O)[C@H](Cc1ccc(O)cc1)NC(=O)[C@@H]1C[C@@H](O)CN1C(=O)[C@H](C)NC(=O)[C@H](CC(C)C)NC(=O)CCCCCNC(=O)[C@@H](N)CSC1CC(=O)N(CCOP(=O)(S)OC[C@H]2O[C@@H](n3cnc4c(N)ncnc43)[C@H](OCCOC)[C@@H]2OP(=O)(S)OC[C@H]2O[C@@H](n3cnc4c(=O)[nH]c(N)nc43)[C@H](OCCOC)[C@@H]2OP(=O)(S)OC[C@H]2O[C@@H](n3cnc4c(=O)[nH]c(N)nc43)[C@H](OCCOC)[C@@H]2OP(=O)(S)OC[C@H]2O[C@@H](n3cnc4c(N)ncnc43)[C@H](OCCOC)[C@@H]2OP(=O)(S)OC[C@H]2O[C@@H](n3cnc4c(=O)[nH]c(N)nc43)[C@H](OCCOC)[C@@H]2OP(=O)(S)OC[C@H]2O[C@@H](n3cnc4c(N)ncnc43)[C@H](OCCOC)[C@@H]2OP(=O)(S)OC[C@H]2O[C@@H](n3cc(C)c(=O)[nH]c3=O)[C@H](OCCOC)[C@@H]2O)C1=O)C(=O)O (some centres unmarked) [ORN3P1]
[1]
  ubiquitination of QKI: showed no such effects
[2]
  LIN28A degradation by confocal microscopy: LIN28A is degraded
